Measured values published in patent publication US7659397B2, “Pyrithione complex compound, process for producing the same and use thereof” (priority 2003, dated 2010).
Where two headings read alike, the source gives them in different places.

Assays:
[1] = for Solubility in seawater, Molecular weight conversion / Solubility in seawater, Dissolved zinc-copper: pH = 8.2
Method: Formulation of artificial seawater (g/L)
0.1 g of the sample was added in 500 mL of artificial seawater, which was then stirred at 20° C. and 30° C. for 4 hours and filtered, and the filtrate was subjected to atomic absorption analysis.

[2] = system: Aspergillus niger ATCC 6275; experiment: Antibacterial test (MIC), agar medium; conditions: Potato dextrose agar medium, 30° C., 7 days
[3] = system: Escherichia coli NBRC 3972; conditions: for Minimum growth inhibitive concentration of bacteria, Escherichia coli: NB agar medium with lactose, 30° C., 3 days
Method: (§1) Preparation of a sample: the extract was dissolved in dimethylsulfoxide, to which an aqueous 0.1 W % Tween 80 was added to make a sample solution.
NB agar medium to which lactose is added, 30° C., 3 days

[4] = system: Malassezia furfur NBRC 0656; conditions: YM agar medium with olive oil, 30° C., 6 days
Method: as §1
YM agar medium to which olive oil is added, 30° C., 6 days

[5] = system: Staphylococcus aureus NBRC 12732; conditions: for Minimum growth inhibitive concentration of bacteria, Staphylococcus aureus: Soybean casein digest agar medium, 30° C., 5 days
Method: as §1
Soybean casein digest agar medium, 30° C., 5 days

[6] = Weathering of polyethylene resin molded article (color difference, yellow index); type: physicochemical; conditions: for ΔE* / ΔYI: Sample after hung in the sun versus before; for degree of coloring: after hung in the sun, ranking
Method: Then, the resin materials were respectively applied to a sheet having a size of 200 mm×200 mm×1.1 mm by press molding in the condition of 140° C. and 200 kgf/cm^2. Two test pieces of 30 mm×110 mm were cut from each of the four sheets and hung in the sun from 8 a.m. to 5 p.m. for five fine weather days selected from among the term between Sep. 15 and […].

[7] = 2% by weight in purified water, well-lighted room, one week
From the text: (§2) The pyrithione complex compound represented by the formula (I) is used as an antidandruff agent to be formulated in hair-care products such as shampoos and hair rinses like conventional zinc pyrithione. […] Also, the zinc pyrithione/zinc oxide complex compound and zinc pyrithione were respectively added to purified water in an amount of 2% by weight and each suspension was allowed to stand in a well-lighted room to observe the degree of coloration of the suspension.

[8] = system: Bacillus subtilis IFO 3215; experiment: Antibacterial test (MIC), shake culture; type: cell-based; conditions: 24 hours
Method: (§3) Preparation of a sample: the white powder is added in a fixed concentration.
(§4) Culture condition: 28° C., 24 hours, shake culture

[9] = system: Escherichia coli IFO 3972; experiment: Antibacterial test (MIC), shake culture; type: cell-based; conditions: 24 hours
Method: as §3, §4

[10] = system: Pseudomonas aeruginosa IAM 1514; experiment: Antibacterial test (MIC), alone and combined with isothiazolone preparation; type: cell-based; conditions: Table 3, Example 16
Method: as §3, §4

[11] = Stability in DMSO (coloring of filtrate); type: physicochemical
Method: 2 g of each of these four compounds was added in 10 g of DMSO, allowed to stand at ambient temperature in a laboratory and filtered, to examine coloring of the filtrate. Then, the filter residue was again added to 10 g of DMSO to carry out the same operation.

oculus membrane mucosa = conditions: aqueous 2.0 W % suspension instilled in the eye
From the text: as §2

[12] = Sample after hung in the sun, five days
[13] = Sample before hung in the sun, 0.15 parts in LDPE

Molecule | Solubility in seawater, Molecular weight conversion ([1]; 20° C.) [µg/mL] | Solubility in seawater, Molecular weight conversion ([1]; 30° C.) [µg/mL] | Minimum growth inhibitive concentration of bacteria, Aspergillus niger [2] [mg/L] | Minimum growth inhibitive concentration of bacteria, Escherichia coli [3] [mg/L] | Minimum growth inhibitive concentration of bacteria, Malassezia furfur [4] [mg/L] | Minimum growth inhibitive concentration of bacteria, Staphylococcus aureus [5] [mg/L] | Solubility in seawater, Dissolved zinc-copper ([1]; 20° C.) | ΔE* [6] | ΔYI [6] | L* [6, 12] | YI [6, 12] | a* [6, 12] | b* [6, 12] | L* [6, 13] | YI [6, 13] | a* [6, 13] | b* [6, 13] | degree of coloring [6] | degree of coloration of the suspension [7] | further results
On1ccccc1=S.On1ccccc1=S.[Cu] [Copper pyrithione] | 0.1 | 0.2 | 20 |  |  |  |  |  |  |  |  |  |  |  |  |  |  |  |  | 
[O-2].[O-][n+]1ccccc1S.[O-][n+]1ccccc1S.[O-][n+]1ccccc1S.[O-][n+]1ccccc1S.[O-][n+]1ccccc1S.[O-][n+]1ccccc1S.[Zn+2].[Zn+2].[Zn+2].[Zn+2] [Example 3 Chloroform extract, zinc pyrithione-zinc oxide complex compound] | 3.2 | 4.3 |  | 10 | 5 | 1.25 | 0.82 (Zn) mg/L | 11.52 | 19.93 | 81.92 | 21.52 | −3.05 | 11.52 | 84.78 | 1.58 | −0.28 | 0.71 | smaller | slightly yellowed | antibacterial ability to Escherichia coli ([3]; compared with zinc pyrithione): higher; antibacterial ability to Staphylococcus aureus ([5]; compared with zinc pyrithione): higher
Zinc pyrithione | 6.1 | 7.4 |  | 20 | 5 | 2.5 |  | 20.18 | 34.00 | 82.16 | 34.70 | −5.00 | 19.68 | 86.87 | 0.71 | −0.79 | 0.51 | the largest | colored in yellow | Minimum growth inhibitive concentration of bacteria, Bacillus subtilis ([8]; Table 1, Example 14, 28° C.): 2.5 mg/L; Minimum growth inhibitive concentration of bacteria, Bacillus subtilis ([8]; Table 2, Example 15, 28° C.): 1 mg/L; Minimum growth inhibitive concentration of bacteria, Escherichia coli ([9]; Table 1, Example 14, 28° C.): 5 mg/L; Minimum growth inhibitive concentration of bacteria, Escherichia coli ([9]; Table 2, Example 15, 28° C.): 2.5 mg/L; Minimum growth inhibitive concentration of bacteria, Pseudomonas aeruginosa [10]: >1000 mg/L; coloring of the first filtrate ([11]; 2 g in 10 g of DMSO, ambient temperature): brown appearance; coloring of the second filtrate ([11]; filter residue again added to 10 g of DMSO): brown appearance; primary irritation (criterion by the Draize method) (oculus membrane mucosa): slightly irritant
[Cu+2].[Cu+2].[Cu+2].[O-][n+]1ccccc1[S-].[O-][n+]1ccccc1[S-].[O-][n+]1ccccc1[S-].[O-][n+]1ccccc1[S-].[O-][n+]1ccccc1[S-].[O-][n+]1ccccc1[S-].[O]=[Cu] [Example 9 Chloroform extract, copper pyrithione/copper (II) oxide complex compound] | 0.6 | 0.6 | 5 |  |  |  | 0.14 (Cu) mg/L |  |  |  |  |  |  |  |  |  |  |  |  | Solubility in seawater, Dissolved zinc-copper ([1]; 30° C.): 0.15 (Cu) mg/L; solubility in seawater ([1]; as stated in the description): about 0.6 ppm
